Counter-ions that a name gives are not always drawn.
target: T1, Hormone-sensitive lipase (HSL) (Homo sapiens, UniProt Q05469); test: 3190.1: percent inhibition of hormone sensitive lipase, fluorochrome-labeled triacylglyceride emulsion; format: biochemical; conditions: 10 μM sample concentration; preincubated 30 min at 25° C.; 120 min incubation at 37° C.; remaining activity; read-out: 3190.1 HSL_FL % ACTIVITY (% activity relative to non-inhibited sample)
T1 construct: made in house
T1 sequence (Q05469 1-775 isoform Q05469-2): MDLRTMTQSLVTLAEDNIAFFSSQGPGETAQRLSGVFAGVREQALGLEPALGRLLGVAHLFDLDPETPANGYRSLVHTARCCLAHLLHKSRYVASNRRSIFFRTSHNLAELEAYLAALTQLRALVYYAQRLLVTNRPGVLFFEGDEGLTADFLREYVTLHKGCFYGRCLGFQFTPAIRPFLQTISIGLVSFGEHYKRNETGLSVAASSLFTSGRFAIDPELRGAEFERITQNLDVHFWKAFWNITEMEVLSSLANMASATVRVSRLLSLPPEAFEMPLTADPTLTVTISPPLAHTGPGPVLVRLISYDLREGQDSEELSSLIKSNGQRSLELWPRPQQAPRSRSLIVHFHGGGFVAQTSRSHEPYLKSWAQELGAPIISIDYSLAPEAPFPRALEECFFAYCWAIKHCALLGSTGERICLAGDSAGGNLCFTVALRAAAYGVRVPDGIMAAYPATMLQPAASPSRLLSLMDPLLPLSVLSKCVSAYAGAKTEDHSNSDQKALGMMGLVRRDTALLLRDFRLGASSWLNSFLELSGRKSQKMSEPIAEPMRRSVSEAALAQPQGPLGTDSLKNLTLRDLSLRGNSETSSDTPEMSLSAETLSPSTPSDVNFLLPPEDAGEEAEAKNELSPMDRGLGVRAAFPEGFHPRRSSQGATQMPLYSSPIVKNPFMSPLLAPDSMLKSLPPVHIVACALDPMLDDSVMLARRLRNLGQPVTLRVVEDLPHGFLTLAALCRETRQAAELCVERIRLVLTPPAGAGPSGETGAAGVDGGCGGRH
Text: The Hormone-sensitive lipase was provided by Dr. Cecilia Holm, from Lund University Sweden or produced and purified by Novo Nordisk (NN) using the reagents and protocols used by Dr. Holm. The substrates used are: ^3H-labeled triolein (TO) from Amersham, Buckinghamshire, U.K. cat No. TRA191; 5-20 Ci/mmol dissolved in toluene, triolein (Sigma, Cat. No. T-1740), fluorochrome-labeled triacylglyceride (cis-octadec-9-enoic acid 2-[12-(7-nitrobenzo[1,2,5]oxadiazol-4-ylamino)dodecanoyloxy]-1-cis-octadec-9-enoyloxymethyl-ethyl ester) prepared by Novo Nordisk (NN) by conventional methods, and 1,3-(di[^3H]-stearin), 2-(PEG-Biotin)glycerol prepared in collaboration with Amersham Pharmacia Biotech, UK and described in WO 01/073442. Phosphatidyl choline (PC) and phosphatidyl inositol (PI) are from Sigma (St Luis MO cat. Nos. P-3556 and P-5954 respectively). All other reagents are of commercial grade and obtained from various commercial sources.
3190.1: Assay for determination of percent inhibition of hormone sensitive lipase by compound at 10 μM sample concentration.
A lipid emulsion with fluorochrome-labeled triacylglyceride and phospholipid is used as substrate with a standard concentration of highly purified HSL (12 μg/mL initial concentration corresponding to 600 ng/mL final concentration). BSA is added as product acceptor. The transfer of the fluorochrome from the lipid phase to the water (BSA) phase changes the fluorescent properties of the fluorochrome. The changes can be monitored on a fluorimeter with an excitation wavelength of 450 nm and an emission wavelength of 545 nm.
Compound and HSL (20 μL compound, 10 μL enzyme and 70 μL PED-BSA buffer) is preincubated for 30 min at 25° C. before addition of substrate (100 μL). Amount of formed product is measured after 120 min incubation at 37° C.
Results are given as percent activity relative to a non-inhibited sample (no compound).

In order of falling activity at 10 µM:
1. CC1(C)CC(=O)N(c2ccc(OC(=O)N3CCN(Cc4ccccn4)CC3)nc2)C(=O)C1 [Example 4, 4-Pyridin-2-ylmethyl-piperazine-1-carboxylic acid 4,4-dimethyl-2,6-dioxo-3,4,5,6-tetrahydro-2H-[1,3′]bipyridinyl-6′-yl ester]  64%
2. CC1(C)CC(=O)N(CCc2ccc(OC(=O)N3CCN(CCc4ccccn4)CC3)cc2)C(=O)C1 [Example 7, 4-(2-Pyridin-2-yl-ethyl)-piperazine-1-carboxylic acid 4-[2-(4,4-dimethyl-2,6-dioxo-piperidin-1-yl)-ethyl]-phenyl ester]  8%
3. O=C(Oc1ccc(Cc2ccc(C(F)(F)F)cc2)cc1)N1CCN(CCc2ccccn2)CC1 [Example 1, 4-(2-Pyridin-2-yl-ethyl)-piperazine-1-carboxylic acid 4-(4-trifluoromethyl-benzyl)-phenyl ester]  6%
4. O=C(Oc1ccc(Cc2ccc(C(F)(F)F)cc2)cc1)N1CCN(Cc2ccccn2)CC1 [Example 2, 4-Pyridin-2-ylmethyl-piperazine-1-carboxylic acid 4-(4-trifluoromethyl-benzyl)-phenyl ester]  4%
5. O=C(Oc1ccc(Oc2ccc(C(F)(F)F)cn2)cc1)N1CCN(CCc2cccnc2)CC1 [Example 9, 4-(2-Pyridin-3-yl-ethyl)-piperazine-1-carboxylic acid 4-(5-trifluoromethyl-pyridin-2-yloxy)-phenyl ester]  2%
6. O=C(Oc1ccc(Oc2ccc(C(F)(F)F)cn2)cc1)N1CCN(CCCc2cccnc2)CC1 [Example 8, 4-(3-Pyridin-3-yl-propyl)-piperazine-1-carboxylic acid 4-(5-trifluoromethyl-pyridin-2-yloxy)-phenyl ester]  1%

tested on: not given; test: not given; conditions: not given

O=C(Oc1ccc(Oc2ccc(C(F)(F)F)cn2)cc1)N1CCN(CCCc2ccccn2)CC1 and O=C(Oc1ccc(Oc2ccc(C(F)(F)F)cn2)cc1)N1CCN(CCCc2cccnc2)CC1 (as salt: hydrochloride) [Example 8, 4-(3-Pyridin-3-yl-propyl)-piperazine-1-carboxylic acid 4-(5-trifluoromethyl-pyridin-2-yloxy)-phenyl ester] cannot be ordered by melting point: 204 to 205 °C for the first, 203 to 208 °C for the second.

From patent US20060160820A1, “Substituted piperazine carbamates” (Novo Nordisk A/S, priority 2003, published 2006)
